These are literature values, as cited in patent US20110306626A1, “IMIDAZOLINONE DERIVATIVES AS CGRP RECEPTOR ANTAGONISTS” (priority 2008, published 2011).

Ends that are not written are not given here.

Data set [1] concerns acute attacks of migraine. The conditions noted are these: clinical trials (Olesen et al. 2004).
Data set [2] relates to headache induced by CGRP infusion. To be noted: control group (Petersen et al. 2005).
For data set [3], the system named is facial blood flow. To be noted: marmoset, electrical stimulation of the trigeminal ganglion (Doods et al. 2000).
Data set [4] concerns middle meningeal artery. The conditions noted are these: rats, electrical stimulation of the dura mater, prior administration (Williamson et al. 1997).
The test system of data set [5] is facial blood flow. The conditions noted are these: rat, trigeminal ganglion stimulation (Escott et al. 1995).

With `NCCCC[C@H](NC(=O)[C@@H](Cc1cc(Br)c(O)c(Br)c1)NC(=O)N1CCC(N2Cc3ccccc3NC2=O)CC1)C(=O)N1CCN(c2ccncc2)CC1` [BIBN4096BS], the “treatment of acute attacks of migraine” value in data set [1] is on record as “effective in treating acute attacks of migraine”. For the same compound, in data set [2], the “prevention of headache induced by CGRP infusion” value is “able to prevent headache induced by CGRP infusion”. Moreover, the “increase in facial blood flow” value in data set [3] is recorded as “could be blocked”.
“CGRP(8-37): a peptide CGRP antagonist; fragment of CGRP that lacks seven N-terminal amino acid residues (VTHRLAGLLSRSGGVVKNNFVPTNVGSKAF; ends and bridges not checked; UniProt P06881 90-119, looked up, fragment)”: in data set [4], the “increase of the diameter of the middle meningeal artery” value was “blocked”. Further, the “increase of facial blood flow” value in data set [5] was “inhibited”.
